Read-outs that look alike come from different tables or passages of the source.
Key:
[1] = biological target: altered peptide ligand of human telomerase reverse transcriptase 540-548 peptide on HLA-A*02:01 (human); experiment: SPR, equilibrium binding; data from (17); soluble, other
[2] = biological target: altered peptide ligand of human telomerase reverse transcriptase 540-548 peptide on HLA-A*02:01 (human); experiment: SPR, equilibrium binding; data from (16); soluble, other
[3] = biological target: altered peptide ligand of human telomerase reverse transcriptase 540-548 peptide on HLA-A*02:01 (human); experiment: SPR, equilibrium binding; kinetics n/m (too fast to measure); data from (39); soluble, other
[4] = biological target: altered peptide ligand of human telomerase reverse transcriptase 540-548 (A2-ILA3G8R) peptide on HLA-A*02:01 (human); experiment: SPR, equilibrium binding at 25 °C, new data of this article; soluble, other
[5] = biological target: human telomerase reverse transcriptase peptide on HLA-A*02:01 (human); experiment: van 't Hoff analysis of SPR affinities at 5-37 °C; soluble, other
[6] = biological target: altered peptide ligand of human telomerase reverse transcriptase 540-548 peptide on HLA-A*02:01 (human); experiment: SPR, equilibrium binding; data from (17); soluble, other; remark: listed apart in the source
[7] = biological target: altered peptide ligand of human telomerase reverse transcriptase 540-548 peptide on HLA-A*02:01 (human); experiment: SPR, equilibrium binding; kinetics n/m (too fast to measure); data from (39); soluble, other; remark: listed apart in the source
[8] = biological target: altered peptide ligand of human telomerase reverse transcriptase 540-548 (A2-ILA8R) peptide on HLA-A*02:01 (human); experiment: SPR, equilibrium binding at 25 °C, new data of this article; kinetics n/m (too fast to measure); much weaker than the index A2-ILA ([…] μM); soluble, other
[9] = biological target: altered peptide ligand of human telomerase reverse transcriptase 540-548 (A2-ILA8E) peptide on HLA-A*02:01 (human); experiment: SPR, equilibrium binding; kinetics n/m; data from (39); extremely weak against the index A2-ILA ([…] μM); soluble, other
[10] = biological target: altered peptide ligand of human telomerase reverse transcriptase 540-548 (A2-ILA8T) peptide on HLA-A*02:01 (human); experiment: SPR, equilibrium binding; data from (39); soluble, other
ILA1 TCR [11] = conditions: SPR, cited from earlier work; for Kd: equilibrium binding
[12] = pMHC thermal stability by circular dichroism; type: physicochemical; conditions: CD thermal denaturation at 218 nm, PBS, ∼3 μM, 0.1-cm cell, two-state trimer-to-monomer fit
Procedure: Thermal stability of the HLA-A*0201-peptide complexes was assessed by circular dichroism spectroscopy, monitoring the change in ellipticities at 218 nm upon heating as described ([31]). Briefly, samples were prepared in PBS at a concentration of ∼3 μM and measured in 0.1-cm quartz cells. Melting curves were analyzed assuming a two-state trimer-to-monomer transition from the native to unfolded conformation and fitted as described ([43]). As all protein complexes aggregated to various degrees upon unfolding, the ellipticity of the unfolded state was set as a constant of −1.35 M^−1 cm^−1 ([44]).

ILA1 TCR [13] = experiment: Surface plasmon resonance binding of ILA1 TCR to HLA-A*0201-ILA peptide variants; design: species or system human; conditions: 25 °C; for Kd: equilibrium binding, SPR, serial dilutions in duplicate, three independent experiments
Procedure: Binding analysis was performed in duplicate using a BIAcoreT200^TM equipped with a CM5 sensor chip as described previously ([45]). Approximately 200–500 response units of HLA-A*0201-[…] or HLA-A*0201-[…] peptide complex was attached to the CM5 sensor chip at a slow flow rate of 10 μl/min to ensure uniform distribution on the chip surface. […] For equilibrium analysis, 10 serial dilutions were prepared in duplicate for each sample and injected over the relevant sensor chips at 25 °C. TCR was injected over the chip surface using kinetic injections at a flow rate of 45 μl/min using HLA-A*0201-[…] as a negative control surface on flow cell 1. Results were analyzed using BIAevaluation^TM 3.1, Excel, and Origin 6.0 software. The equilibrium dissociation constant (KD) values were calculated assuming a 1:1 interaction by plotting specific equilibrium binding responses against protein concentrations followed by non-linear least square fitting of the Langmuir binding equation. For kinetics analysis, the kon and koff values were calculated assuming 1:1 Langmuir binding, and the data were analyzed using a global fit algorithm (BIAevaluation 3.1).

[14] = SPR BIAcore T200, ILA1 TCR injected over immobilised pMHC, 1:1 Langmuir global fit

Substance	Kd (ILA1 TCR [11]) [µM]	apparent Tm (melting temperature) [12] [°C]	koff (ILA1 TCR [11]) [s⁻¹]	kon (ILA1 TCR [11]) [M⁻¹ s⁻¹]	also measured
ILA1 TCR					Kd [1]: 2.5 µM; Kd [2]: 117 µM; Kd [3]: 82 µM; Kd [4]: 1 µM; TΔS [5]: 5.86 kcal/mol; Kd [6]: 242 µM; Kd [7]: 22.6 µM; Kd [8]: 151 µM; Kd [9]: > 500 µM; Kd [10]: 28 µM
ILAKFLHEL	> 500	58.8			
ILAKFLHRL		60.9			Kd (ILA1 TCR [13]): 151 ± 8 µM
ILAKFLHTL	28 ± 5	58.7	0.08	2200	
ILAKFLHWL		54.5			
ILAKFLHYL	22.6 ± 2.1				
ILAKFLYWL	82 ± 8				
ILAKYLHWL	242 ± 20		0.32	1300	
ILALFLHWL	117 ± 6		0.2	1700	
ILGKFLHRL		55.9			koff (ILA1 TCR [13]; [14]): 0.16 s⁻¹; kon (ILA1 TCR [13]; [14]): 30000 M⁻¹ s⁻¹; Kd (ILA1 TCR [13]): 1 ± 0.1 µM
ILGKFLHTL	2.5 ± 0.5	55.6	0.05	19500	
ILGKFLHWL	3.7 ± 0.2	49.8	0.05	16000	
